Source: patent US20050152845A1, “Amorphous fluticasone 2-furoate, pharmaceutical compositions thereof and its conversion to the crystalline unsolvated form” (priority 2002, published 2005)

How the values were obtained:
[1] = target: T1, glucocorticoid receptor (GR) (Homo sapiens, UniProt P04150); experiment: Transactivation reporter assay (renilla luciferase, glucocorticoid response element) in A549 cells; type: cell-based; settings: 1 h compound then 0.5ng/ml TNFα 15 hours, read-out: Transactivation (GR) ED50
T1 construct: two reporter plasmids have been generated and introduced separately into A549 human lung epithelial cells by transfection; endogenous in cells; host or cells: A549 human lung epithelial cells stably carrying a renilla luciferase reporter with 3 copies of the consensus GRE
T1 sequence (P04150 1-777): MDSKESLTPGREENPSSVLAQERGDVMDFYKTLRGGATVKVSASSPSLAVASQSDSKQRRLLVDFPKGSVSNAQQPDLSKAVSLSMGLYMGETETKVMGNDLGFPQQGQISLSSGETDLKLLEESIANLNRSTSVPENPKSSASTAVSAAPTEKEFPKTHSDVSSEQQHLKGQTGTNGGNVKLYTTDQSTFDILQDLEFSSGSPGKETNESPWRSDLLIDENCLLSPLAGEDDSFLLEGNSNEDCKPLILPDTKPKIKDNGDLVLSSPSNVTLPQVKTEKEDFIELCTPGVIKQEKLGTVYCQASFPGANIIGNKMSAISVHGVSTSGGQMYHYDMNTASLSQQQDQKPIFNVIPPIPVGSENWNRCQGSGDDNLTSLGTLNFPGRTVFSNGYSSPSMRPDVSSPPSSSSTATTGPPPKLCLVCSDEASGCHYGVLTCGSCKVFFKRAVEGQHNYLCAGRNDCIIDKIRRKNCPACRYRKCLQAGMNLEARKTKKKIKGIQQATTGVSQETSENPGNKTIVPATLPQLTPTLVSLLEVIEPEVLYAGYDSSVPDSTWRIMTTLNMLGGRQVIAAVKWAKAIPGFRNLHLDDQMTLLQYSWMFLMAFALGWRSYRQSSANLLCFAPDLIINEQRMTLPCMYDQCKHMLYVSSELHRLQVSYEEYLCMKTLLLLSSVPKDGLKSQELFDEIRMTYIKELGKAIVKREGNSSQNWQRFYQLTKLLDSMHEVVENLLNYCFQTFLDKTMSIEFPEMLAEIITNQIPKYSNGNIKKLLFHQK
Description: (§1) The glucocorticoid receptor (GR) can function in at least two distinct mechanisms, by upregulating gene expression through the direct binding of GR to specific sequences in gene promoters, and by downregulating gene expression that is being driven by other transcription factors (such as NFκB or AP-1) through their direct interaction with GR.
In a variant of the above method, to monitor these functions, two reporter plasmids have been generated and introduced separately into A549 human lung epithelial cells by transfection. The first cell line contains the firefly luciferase reporter gene under the control of a synthetic promoter that specifically responds to activation of the transcription factor NFκB when stimulated with TNFα. The second cell line contains the renilla luciferase reporter gene under the control of a synthetic promotor that comprises 3 copies of the consensus glucocorticoid response element, and which responds to direct stimulation by glucocorticoids. […] After incubation for 1 h 0.5ng/ml TNFα (R&D Systems) was added and after a further 15 hours at 37° C., the levels of firefly and renilla luciferase were measured using the Packard Firelite kit following the manufacturers' directions. Dose response curves were constructed from which EC50 values were determined.

glucocorticoid receptor = target: T2, glucocorticoid receptor (Homo sapiens, UniProt P04150); experiment: In vitro functional glucocorticoid assays, metabolite versus parent; type: cell-based
T2 construct: endogenous in cells
T2 sequence (P04150 1-777): T1 sequence (P04150 1-777)
Method: Compound (I) undergoes highly efficient hepatic metabolism to yield the 17-β carboxylic acid (X) as the sole major metabolite in rat and human in vitro systems.
The functional assay was based on that described by K. P. Ray et al., Biochem J. (1997), 328, 707-715. A549 cells stably transfected with a reporter gene containing the NF-κB responsive elements from the ELAM gene promoter coupled to sPAP (secreted alkaline phosphatase) were treated with test compounds at appropriate doses for 1 hour at 37° C. The cells were then stimulated with tumour necrosis factor (TNF, 10ng/ml) for 16 hours, at which time the amount of alkaline phosphatase produced is measured by a standard colourimetric assay. Dose response curves were constructed from which EC50 values were estimated.
In a variant of the above method, to monitor these functions, two reporter plasmids have been generated and introduced separately into A549 human lung epithelial cells by transfection. […] After incubation for 1 h 0.5ng/ml TNFα (R&D Systems) was added and after a further 15 hours at 37° C., the levels of firefly and renilla luciferase were measured using the Packard Firelite kit following the manufacturers' directions. Dose response curves were constructed from which EC50 values were determined.

NFκB = experiment: Transrepression reporter assay (firefly luciferase, NFκB promoter, TNFα stimulated) in A549 cells; type: cell-based; settings: Homo sapiens, 1 h compound then 0.5ng/ml TNFα 15 hours, read-out: Transrepression (NFκB) ED50
Description: as §1
The first cell line contains the firefly luciferase reporter gene under the control of a synthetic promoter that specifically responds to activation of the transcription factor NFκB when stimulated with TNFα. The second cell line contains the renilla luciferase reporter gene under the control of a synthetic promotor that comprises 3 copies of the consensus glucocorticoid response element, and which responds to direct stimulation by glucocorticoids. Simultaneous measurement of transactivation and transrepression was conducted by mixing the two cell lines in a 1:1 ratio in 96 well plate (40,000 cells per well) and growing overnight at 37° C. Test compounds were dissolved in DMSO, and added to the cells at a final DMSO concentration of 0.7%. […] Dose response curves were constructed from which EC50 values were determined.

lung eosinophilia = experiment: Ovalbumin sensitised Brown Norway rat eosinophilia model; type: in vivo; settings: single dose of 30 μg, intra-tracheal suspension in saline 30 min prior to ovalbumin challenge
Method: Pharmacological activity in vivo was assessed in an ovalbumin sensitised Brown Norway rat eosinophilia model. This model is designed to mimic allergen induced lung eosinophilia, a major component of lung inflammation in asthma.

thymus weight = experiment: Rat model of thymus involution; type: in vivo; settings: 3 daily IT doses of 100 μg
[2] = Pharmacokinetics after intra-tracheal dry powder dosing in the pig; type: in vivo; settings: 1 mg intra-tracheal, LLOQ 10 pg/mL compound (I), 20pg/mL fluticasone propionate
Method: Serial blood samples were taken for up to 8 h following dosing.

SMILES | EC50 [1] | fold less active than the parent compound (glucocorticoid receptor) | EC50 (NFκB) | inhibition of lung eosinophilia (lung eosinophilia) | reduction of thymus weight (thymus weight) | time after dosing up to which quantifiable in plasma [2]
C[C@@H]1CCC2C3C[C@H](F)C4=CC(=O)C=C[C@]4(C)[C@@]3(F)[C@@H](O)C[C@]2(C)[C@@]1(OC(=O)c1ccco1)C(=O)O (stereo partly drawn) [Metabolite (X)] | > 250 nM | > 1000 fold | > 1000 nM |  |  | 
CCC(=O)O[C@]1(C(=O)SCF)[C@H](C)C[C@H]2[C@@H]3C[C@H](F)C4=CC(=O)C=C[C@]4(C)[C@@]3(F)[C@@H](O)C[C@@]21C [Fluticasone propionate, 6α, 9α-Difluoro-17α-(1-oxopropoxy)-11β-hydroxy-16α-methyl-3-oxo-androsta-1,4-diene-17β-carbothioic acid S-fluoromethyl ester, reference compound] |  |  |  | 41% | 78% | up to 8 hours
